This is an account of results in patent publication US6110962A, “11-aryl-benzo[B]naphtho[2,3-D]furans and 11-aryl-benzo[B]naphtho[2,3-D]thiophenes useful in the treatment of insulin resistance and hyperglycemia” (American Home Products Corporation, priority 1999, dated 2000).

Molecules are shown by their SMILES. Structures can show the parent of a compound that is named as a salt. Where two headings read alike, the source gives them in different places.

One experiment addresses T1, Human recombinant PTP1B (Homo sapiens, UniProt P18031).
T1 construct: made in house
T1 sequence (P18031 1-435): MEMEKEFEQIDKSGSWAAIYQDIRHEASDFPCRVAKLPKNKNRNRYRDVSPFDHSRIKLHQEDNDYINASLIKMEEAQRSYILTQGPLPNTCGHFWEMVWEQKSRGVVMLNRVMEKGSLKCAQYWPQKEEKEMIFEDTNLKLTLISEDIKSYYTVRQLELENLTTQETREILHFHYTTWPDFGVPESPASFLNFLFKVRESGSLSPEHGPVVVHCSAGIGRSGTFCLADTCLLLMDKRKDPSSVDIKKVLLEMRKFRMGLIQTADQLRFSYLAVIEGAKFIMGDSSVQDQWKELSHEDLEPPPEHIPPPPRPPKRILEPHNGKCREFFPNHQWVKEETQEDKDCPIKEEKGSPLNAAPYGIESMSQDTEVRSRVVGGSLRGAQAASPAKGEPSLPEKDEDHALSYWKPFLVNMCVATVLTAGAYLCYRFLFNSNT
It counts as biochemical.

Experiment [1] concerns rat hepatic microsomal PTPases. The settings on record: PTPase activity, compound at 50 μM.

Regarding `O=C(O)[C@H](Cc1ccccc1)Oc1ccc(-c2c3ccccc3c(Br)c3sc4ccccc4c23)cc1` [Example 114, (S)-2-[4-(6-bromo-benzo[b]naphtho[2,3-d]thiophen-11-yl)-phenoxy]-3-phenyl-propionic acid], at Human recombinant PTP1B (read-out: IC50), the IC50 is 589 nM. Besides, in experiment [1], the “% Change from Control” value is reported as -68.03%.
As for `O=C(O)[C@@H](Cc1ccccc1)Oc1c(Br)cc(-c2c3ccccc3c(OCc3ccccc3)c3sc4ccccc4c23)cc1Br` [Example 184, (R)-2-[4-(6-Benzyloxy-benzo[b]naphtho[2,3-d]thiophen-11-yl]-2-6-dibromo-phenoxy}-3-phenyl-propionic acid], the IC50 at Human recombinant PTP1B (read-out: IC50) came to 45 nM. Also, the “% Change from Control” value in experiment [1] is -46.44%.
The corresponding values for `O=C(O)[C@@H](Cc1ccccc1)Oc1c(Cl)cc(-c2c3ccccc3c(Br)c3sc4ccccc4c23)cc1Cl` [Example 130, (R)-2-[2,6-Dichloro-4-(6-bromo-benzo[b]naphtho[2,3-d]thiophen-11-yl)-phenoxy]l-3-phenyl-propionic acid] are 800 nM and -72.14%.
In the case of `O=C(O)COc1cc(-c2c3ccccc3c(Br)c3sc4ccccc4c23)c(Br)cc1Br` [Example 92, [2,4-Dibromo-5-(6-bromo-benzo[b]naphtho[2.3-d]thiophen-1-yl)-phenoxyl]-acetic acid], at Human recombinant PTP1B (read-out: IC50), the IC50 turned out to be 644 nM. Besides, the “% Change from Control” value in experiment [1] is given as -98.16%.
Consider `Oc1cc(Br)c(-c2c3ccccc3c(Br)c3sc4ccccc4c23)cc1O` [Example 71, 4-Bromo-5-(6-bromo-benzo[b]naphtho[2,3-d]thiophen-11-yl)-benzene-1,2-diol], for which the IC50 at Human recombinant PTP1B (read-out: IC50) was 79 nM. In addition, in experiment [1], the “% Change from Control” value is recorded as -35.74%.
`Oc1ccc(-c2c3ccccc3c(Br)c3sc4ccccc4c23)cc1` [Example 41, 4-(6-Bromo-benzo[b]naphtho[2,3-d]thiophen-11-yl)-phenol]: at Human recombinant PTP1B (read-out: IC50), the IC50 stood at 1080 nM. In addition, the “% Change from Control” value in experiment [1] is recorded as -39.32%.
Take `COc1c2ccccc2c(-c2cc(Br)c(O)c(Br)c2)c2c1sc1ccccc12` [Example 63]: on Human recombinant PTP1B (read-out: IC50), the IC50 is 904 nM. For the same molecule, in experiment [1], the “% Change from Control” value is reported as -47.53%.
For the molecule `Cc1c2ccccc2c(-c2cc(Br)c(O[C@H](Cc3ccccc3)C(=O)O)c(Br)c2)c2c1sc1ccccc12` [Example 141], the IC50 on Human recombinant PTP1B (read-out: IC50) was 126 nM. Further, the “% Change from Control” value in experiment [1] is listed as -76.58%.
With `O=C(O)[C@@H](Cc1ccccc1)Oc1c(Br)cc(-c2c3ccccc3c(Sc3ccncc3)c3sc4ccccc4c23)cc1Br` [Example 134, (R)-2-{2,6-Dibromo-4-[6-(pyridin-4-ylsulfanyl)-benzo[b]naphtho[2,3-d]thiophen-11-yl]-phenoxy}-3-phenyl-propionic acid], the IC50 at Human recombinant PTP1B (read-out: IC50) is 93 nM. For the same molecule, the “% Change from Control” value in experiment [1] is -69.86%.
In the case of `O=C(O)[C@@H](CCN1Cc2ccccc2C1=O)Oc1c(Br)cc(-c2c3ccccc3c(Br)c3sc4ccccc4c23)cc1Br` [Example 124, (2R)-2-[2,6-Dibromo-4-(6-bromo-benzo[b]naphtho[2,3-d]thiophen-11-yl)-phenoxy]-4-(1-oxo-1,3-dihydro-isoindol-2-yl)-butyric acid], the IC50 on Human recombinant PTP1B (read-out: IC50) was 85 nM. In addition, the “% Change from Control” value in experiment [1] is listed as -70.01%.
Turning to `COC(=O)[C@H](Cc1ccccc1)Oc1c(Br)cc(-c2c3ccccc3c(Br)c3sc4ccccc4c23)cc1Br` [Example 110, (S)-2-[2,6-Dibromo-4-(6-bromo-benzo[b]naphtho[2,3-d]thiophen-11-yl)-phenoxy]-3-phenyl-propionic acid, methyl ester], at Human recombinant PTP1B (read-out: IC50), the IC50 turned out to be 1520 nM. Further, the “% Change from Control” value in experiment [1] is recorded as -12.78%.
For `O=P(O)(O)Oc1c(Br)cc(-c2c3ccccc3c(Br)c3sc4ccccc4c23)cc1Br` [Example 177, Phosphoric acid Mono-[2,6-dibromo-4-(6-bromo-benzo[b]naphtho[2,3-d]thiophen-11-yl)-phenyl]ester], the IC50 at Human recombinant PTP1B came out at 1080 nM. In addition, the “% Change from Control” value in experiment [1] is reported as -69.35%.
`O=C(O)[C@@H](Cc1c[nH]cn1)Oc1c(Br)cc(-c2c3ccccc3c(Br)c3sc4ccccc4c23)cc1Br` [Example 120, (R)-2-[2,6-Dibromo-4-(6-bromo-benzo[b]naphtho[2,3-d]thiophen-11-yl)-phenoxy]-3-(1 H-imidazol-4-yl)-propionic acid, hydrochloride]: the half-inhibitory concentration (IC50) at Human recombinant PTP1B (read-out: IC50) was 541 nM. The “% Change from Control” value in experiment [1] is -17.35%.
For the molecule `Oc1ccc(-c2c3ccccc3cc3sc4ccccc4c23)cc1O` [Example 18, 4-(Benzo[b]naphtho[2,3-d]thiophen-11-yl)-benzene-1,2-diol], the IC50 at Human recombinant PTP1B (read-out: IC50) was determined as 554 nM. Further, the “% Change from Control” value in experiment [1] is recorded as -15.22%.
For `O=C(O)COc1cc(-c2c3ccccc3c(Br)c3sc4ccccc4c23)ccc1Br` [Example 91, [2-Bromo-5-(6-bromo-benzo[b]naphtho[2,3-d]thiophen-11-yl)-phenoxyl]-acetic acid], the IC50 at Human recombinant PTP1B (read-out: IC50) was 1300 nM. Besides, the “% Change from Control” value in experiment [1] was -97.10%.
Regarding `NC(=O)COc1c(Br)cc(-c2c3ccccc3c(Br)c3sc4ccccc4c23)cc1Br` [Example 165], the IC50 at Human recombinant PTP1B (read-out: IC50) worked out at 665 nM. In experiment [1], the “% Change from Control” value was -3.12%.
With `O=C(O)C(Cc1cccnc1)Oc1c(Br)cc(-c2c3ccccc3c(Br)c3sc4ccccc4c23)cc1Br` (centres unmarked) [Example 137, 2-[2,6-Dibromo-4-(6-bromo-benzo[b]naphtho[2,3-d]thiophen-11-yl)-phenoxy]-3-pyridin-3-yl-propionic acid], on Human recombinant PTP1B (read-out: IC50), the IC50 was found to be 341 nM. In experiment [1], the “% Change from Control” value was -64.92%.
Regarding `N#CCOc1c(Br)cc(-c2c3ccccc3c(Br)c3sc4ccccc4c23)cc1Br` [Example 169, [2,6-Dibromo-4-(6-bromo-benzo[b]naphtho[2.3-d]thiophen-11-yl)-phenoxy]-acetonitrile], on Human recombinant PTP1B (read-out: IC50), the IC50 stood at 1220 nM. Also, the “% Change from Control” value in experiment [1] is reported as -9.30%.
On to `Oc1c(Br)cc(-c2c3ccccc3c(Br)c3oc4ccccc4c23)cc1Br` [Example 210, 2,6-Dibromo-4-(6-bromo-benzo[b]naphtho[2,3-d]furan-11ly)-phenol], for which the IC50 at Human recombinant PTP1B (read-out: IC50) was 1060 nM. For the same molecule, the “% Change from Control” value in experiment [1] is on record as -51.55%.
The corresponding values for `O=C(O)C[C@@H](Oc1c(Br)cc(-c2c3ccccc3c(Br)c3sc4ccccc4c23)cc1Br)C(=O)O` [Example 152, (R)-2-[2,6-Dibromo-4-(6-bromo-benzo[b]naphtho[2,3-d]thiophen-11-yl)-phenoxy]-succinic acid] are 994 nM and -95.22%.
Consider `C[C@@H](Oc1c(I)cc(-c2c3ccccc3cc3sc4ccccc4c23)cc1I)C(=O)O` [Example 132, (R)-2-(4-Benzo[b]naphtho[2,3-d]thiophen-11-yl-2,6-diiodo-phenoxy)-propionicacid], for which the 50% inhibitory concentration (IC50) at Human recombinant PTP1B (read-out: IC50) was found to be 311 nM. Moreover, the “% Change from Control” value in experiment [1] is listed as -49.27%.
With `CC(=O)Oc1ccc(-c2c3ccccc3c(Br)c3sc4ccccc4c23)cc1` [Example 37, 4-(6-Bromo-benzo[b]naphtho[2,3-d]thiophen-11-yl-phenol)acetate(ester)], the IC50 on Human recombinant PTP1B (read-out: IC50) is 1180 nM. For the same molecule, the “% Change from Control” value in experiment [1] is given as -3.02%.
For `O=C(O)[C@H](CCc1ccccc1)Oc1c(Br)cc(-c2c3ccccc3c(Br)c3sc4ccccc4c23)cc1Br` [Example 118], the IC50 on Human recombinant PTP1B (read-out: IC50) was 31 nM. In addition, the “% Change from Control” value in experiment [1] is given as -82.00%.
Take `O=C(O)C(Cc1ccc2ccccc2c1)Oc1c(Br)cc(-c2c3ccccc3c(Br)c3sc4ccccc4c23)cc1Br` (centres unmarked) [Example 156, 2-[2,6-Dibromo-4-(6-bromo-benzo[b]naphtho[2,3-d]thiophen-11-yl)-phenoxy]-3-naphthalen-2yl-propionic acid]: the IC50 at Human recombinant PTP1B (read-out: IC50) turned out to be 26 nM. Moreover, the “% Change from Control” value in experiment [1] was -71.12%.
Turning to `O=C(O)CCOc1c(Br)cc(-c2c3ccccc3c(Br)c3sc4ccccc4c23)cc1Br` [Example 179], on Human recombinant PTP1B (read-out: IC50), the IC50 is 203 nM. The “% Change from Control” value in experiment [1] was -66.27%.
Take `NC(=O)[C@@H](Cc1ccccc1)Oc1c(Br)cc(-c2c3ccccc3c(Br)c3sc4ccccc4c23)cc1Br` [Example 166]: at Human recombinant PTP1B (read-out: IC50), the half-maximal inhibitory concentration (IC50) amounted to 565 nM. The “% Change from Control” value in experiment [1] is -26.86%.
For `CC(C)c1cc(-c2c3ccccc3c(Br)c3sc4ccccc4c23)cc(C(C)C)c1O[C@H](C)C(=O)O` [Example 140, (R)-2-[4-(6-Bromo-benzo[b]naphtho[2,3-d]thiophen-11-yl)-2,6-diisopropyl-phenoxy)-propionic acid], the IC50 at Human recombinant PTP1B (read-out: IC50) came to 204 nM. For the same molecule, the “% Change from Control” value in experiment [1] is given as -71.19%.
`Oc1c(F)ccc(-c2c3ccccc3c(Br)c3sc4ccccc4c23)c1F` [Example 200, 3-(6-Bromo-benzo[b]naphtho[2,3-d]thiophen-11-yl)-2,6 difluoro-phenol]: the concentration for half-maximal inhibition (IC50) on Human recombinant PTP1B (read-out: IC50) turned out to be 1170 nM. The “% Change from Control” value in experiment [1] was -50.62%.
Take `Oc1c(Br)cc(-c2c3ccccc3c(Br)c3sc4ccccc4c23)cc1Br` [Example 21, 2,6-Dibromo-4-(6-bromo-benzo[b]naphtho[2,3-d]thiophen-11-yl)-phenol]: the half-maximal inhibitory concentration (IC50) at Human recombinant PTP1B (read-out: IC50) was 384 nM. Moreover, in experiment [1], the “% Change from Control” value is -32.41%.
With `Oc1c(-c2ccccc2)cc(-c2c3ccccc3cc3sc4ccccc4c23)cc1-c1ccccc1` [Example 190, 5'-Benzo[b]naphtho[2,3-d]thiophen-11-yl-[1,1':3', 1.increment.]terphenyl-2'-ol], the IC50 on Human recombinant PTP1B (read-out: IC50) was determined as 2000 nM.

The IC50 is the concentration that gives 50% inhibition.
